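Test compounds were applied to cells in 96-well plates for 48 hours at 5 doses. The concentration for full growth arrest is given as TGI.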
What was measured:
Experiment in all cases: growth of human tumour cells (NCI), 48 h
T-47D breast = test system: T-47D breast
UACC-62 melanoma = test system: UACC-62 melanoma
HCT-15 colon = test system: HCT-15 colon
SNB-19 CNS = test system: SNB-19 CNS
IGROV1 ovarian = test system: IGROV1 ovarian
MDA-MB-435 = test system: MDA-MB-435
SW-620 colon = test system: SW-620 colon
SN12C renal = test system: SN12C renal
COLO 205 colon = test system: COLO 205 colon
SF-295 CNS = test system: SF-295 CNS
786-0 renal = test system: 786-0 renal
LOX IMVI melanoma = test system: LOX IMVI melanoma
TK-10 renal = test system: TK-10 renal
DU-145 prostate = test system: DU-145 prostate
SK-MEL-2 melanoma = test system: SK-MEL-2 melanoma
MCF7 breast = test system: MCF7 breast
NCI-H460 lung = test system: NCI-H460 lung
SK-MEL-5 melanoma = test system: SK-MEL-5 melanoma
OVCAR-5 ovarian = test system: OVCAR-5 ovarian
OVCAR-8 ovarian = test system: OVCAR-8 ovarian
UACC-257 melanoma = test system: UACC-257 melanoma
ACHN renal = test system: ACHN renal
MDA-MB-231 breast = test system: MDA-MB-231 breast
NCI-H522 lung = test system: NCI-H522 lung
HCC-2998 colon = test system: HCC-2998 colon
HS 578T breast = test system: HS 578T breast
HOP-62 NSCLC = test system: HOP-62 NSCLC
KM12 colon = test system: KM12 colon
U251 CNS = test system: U251 CNS
SF-539 CNS = test system: SF-539 CNS
MOLT-4 leukemia = test system: MOLT-4 leukemia
HCT-116 colon = test system: HCT-116 colon
SK-MEL-28 melanoma = test system: SK-MEL-28 melanoma
OVCAR-3 ovarian = test system: OVCAR-3 ovarian
M14 melanoma = test system: M14 melanoma
NCI/ADR-RES ovarian = test system: NCI/ADR-RES ovarian
MDA-N = test system: MDA-N
A549 NSCLC = test system: A549 NSCLC
PC-3 prostate = test system: PC-3 prostate
CCRF-CEM leukemia = test system: CCRF-CEM leukemia
HL-60(TB) leukemia = test system: HL-60(TB) leukemia
OVCAR-4 ovarian = test system: OVCAR-4 ovarian
CAKI-1 renal = test system: CAKI-1 renal
HT29 colon = test system: HT29 colon
NCI-H23 lung = test system: NCI-H23 lung
RXF 393 renal = test system: RXF 393 renal
A498 renal = test system: A498 renal
EKVX NSCLC = test system: EKVX NSCLC
RPMI-8226 leukemia = test system: RPMI-8226 leukemia
SF-268 CNS = test system: SF-268 CNS
MALME-3M melanoma = test system: MALME-3M melanoma
SK-OV-3 ovarian = test system: SK-OV-3 ovarian
BT-549 breast = test system: BT-549 breast
HOP-92 NSCLC = test system: HOP-92 NSCLC
UO-31 renal = test system: UO-31 renal
NCI-H226 lung = test system: NCI-H226 lung
K-562 leukemia = test system: K-562 leukemia
SNB-75 CNS = test system: SNB-75 CNS
SR leukemia = test system: SR leukemia

Measured: TGI

COC(=O)[C@@H](OC(C)=O)[C@@H](OC(C)=O)c1nnc2ccc(Cl)nn12
95.3 µM: NCI-H522 lung
not listed: HOP-92 NSCLC | UO-31 renal | NCI-H226 lung | K-562 leukemia | SNB-75 CNS | SR leukemia
> 100 µM: all other assays above

O=C1/C(=C/c2ccc(Cl)cc2)N=C(c2ccccc2)N1/N=C/c1ccccc1O
31 µM: K-562 leukemia | SNB-75 CNS
32.9 µM: HOP-92 NSCLC
7.73 µM: CCRF-CEM leukemia
31.4 µM: LOX IMVI melanoma
35.6 µM: NCI-H522 lung
46.3 µM: SK-MEL-2 melanoma
42.1 µM: NCI-H226 lung
30.3 µM: UACC-62 melanoma
5.21 µM: HOP-62 NSCLC
22.4 µM: SK-OV-3 ovarian
81.6 µM: A549 NSCLC
39.6 µM: BT-549 breast
28 µM: PC-3 prostate
34.6 µM: OVCAR-8 ovarian
12.6 µM: TK-10 renal
47.1 µM: SF-268 CNS
19.9 µM: OVCAR-4 ovarian
22.3 µM: CAKI-1 renal
29.7 µM: SF-295 CNS
43.4 µM: UO-31 renal
36.3 µM: OVCAR-3 ovarian
92.8 µM: HS 578T breast
29.5 µM: RXF 393 renal
97.6 µM: NCI/ADR-RES ovarian
63.3 µM: MDA-MB-231 breast
26.4 µM: IGROV1 ovarian
15.2 µM: HCT-116 colon
26.6 µM: SF-539 CNS
21.2 µM: ACHN renal
62.9 µM: SK-MEL-28 melanoma
33.3 µM: KM12 colon
18.7 µM: MALME-3M melanoma
24.8 µM: RPMI-8226 leukemia
38.9 µM: MOLT-4 leukemia
21.3 µM: EKVX NSCLC
34.8 µM: OVCAR-5 ovarian
18.6 µM: U251 CNS
30.7 µM: T-47D breast
19.1 µM: M14 melanoma
79.2 µM: NCI-H460 lung
not listed: 786-0 renal | HCC-2998 colon | A498 renal | SR leukemia
> 100 µM: all other assays above

CC(C)COP(C)(=O)C(N)(C(F)(F)F)C(F)(F)F (stereo unspecified)
not listed: SNB-19 CNS | NCI-H460 lung | NCI-H522 lung | RXF 393 renal | A498 renal | BT-549 breast
> 100 µM: all other assays above

Reference: PubChem BioAssay (NCI)
